{"source": "patent US20090042962A1", "about": "“Therapeutic Agent for Keratoconjunctival Disorder” (SANTEN PHARMACEUTICAL CO., LTD., priority 2005, published 2009)", "system": "corneal disorder models", "test": "Test for therapeutic effect on corneal damage (exorbital lacrimal gland removal, fluorescein staining score)", "type": "in vivo, male SD rats", "conditions": "for Improvement ratio (%): instilled 6 times a day for 14 days; for Mean value of scores: instilled into both eyes 6 times a day for 14 days, fluorescein staining total score", "method": "Using male SD rats, corneal disorder models were produced in accordance with the method of Fujihara et al. (Invest. Opthalmol. Vis. Sci. 42 (1): 96-100 (2001)) After the production of the corneal disorder models, the corneal damage score was evaluated in accordance with the method of Murakami et al. (Journal of the eye 21 (1): 87-90 (2004)), and the improvement ratio of a corneal damage after instillation was obtained.\nMale SD rats were systemically anesthetized by an administration of Nembutal. Subsequently the exorbital lacrimal gland of each rat was removed and a corneal damage was induced over a period of 2 months.\nThen, 4′-[[4-methyl-6-(1-methylbenzimidazol-2-yl)-2-n-propylbenzimidazol-1-yl]methyl]-1,1′-biphenyl-2-carboxylic acid (hereinafter referred to as “Compound A”), 2-n-butyl-4-spirocyclopentane-1-[[2′-(1H-tetrazol-5-yl)-1,1′-biphenyl-4-yl]methyl]-2-imidazolin-5-one (hereinafter referred to as “Compound B”), 2-butyl-4-chloro-5-hydroxymethyl-1-[[2′-(1H-tetrazol-5-yl)-1,1′-biphenyl-4-yl]methyl]imidazole monopotassium salt (hereinafter referred to as “Compound C”), 2-ethoxy-1-[[2′-(1H-tetrazol-5-yl)-1,1′-biphenyl-4-yl]methyl]-1H-benzimidazol-7-carboxylic acid (hereinafter referred to as “Compound D”) […] N-[[2′-(1H-tetrazol-5-yl)-1,1′-biphenyl-4-yl]methyl]-N-valeryl-L-valine (hereinafter referred to as “Compound E”), or 4-(1-hydroxy-1-methylethyl)-2-n-propyl-1-[[2′-(1H-tetrazol-5-yl)-1,1′-biphenyl-4-yl]methyl]imidazol-5-carboxylic acid monohydrate (hereinafter referred to as “Compound F”) was administered to the rats as follows.\nA physiological saline solution containing Compound A (0.005%) was instilled into both eyes 6 times a day for 14 days (one group consisting of 4 animals, 8 eyes).\nA physiological saline solution containing Compound B (0.04%) was instilled into both eyes 6 times a day for 14 days (one group consisting of 4 animals, 8 eyes).\nA physiological saline solution containing Compound C (0.5%) was instilled into both eyes 6 times a day for 14 days (one group consisting of 3 animals, 6 eyes).\nA phosphate-buffered saline solution containing Compound D (0.004%) was instilled into both eyes 6 times a day for 14 days (one group consisting of 4 animals, 8 eyes).\nA phosphate-buffered saline solution containing Compound E (0.004%) was instilled into both eyes 6 times a day for 14 days (one group consisting of 4 animals, 8 eyes).\nA phosphate-buffered saline solution containing Compound F (0.004%) was instilled into both eyes 6 times a day for 14 days (one group consisting of 4 animals, 8 eyes).\nIn a control group, physiological saline or phosphate-buffered saline was instilled into both eyes 6 times a day for 14 days (one group consisting of 4 animals, 8 eyes).\nFourteen days after the start of instillation, the damaged parts of the cornea were stained with fluorescein. For each of the upper, middle and lower parts of the cornea, the degree of fluorescein staining was evaluated by scoring according to the criteria shown below and the improvement ratio of corneal damage was calculated from the mean value of the total scores for each of the above-mentioned parts. Also for normal eyes, the mean value of the total scores for each of the above-mentioned parts was obtained.\n0: No punctate staining 1: Scattered staining (punctate staining being separated) 2: Moderate staining (a part of punctate staining being adjacent) 3: Heavy staining (punctate staining being barely separated)\nIncidentally, the mean value of the scores is a mean of those of 8 cases or 6 cases, respectively.\nImprovement ratio (%)={(control)−(the present compound)}/damage degree×100 Damage degree=(control)−(normal eye)", "key": {"[1]": {"conditions": "0.004% in phosphate-buffered saline, vs phosphate-buffered saline control, Table 2"}, "[2]": {"conditions": "0.004% in phosphate-buffered saline, Table 2 (normal eye 2.5, control 4.6)"}}, "data": [{"smiles": "CCCCC1=NC2(CCCC2)C(=O)N1Cc1ccc(-c2ccccc2-c2nnn[nH]2)cc1", "note": "[Compound B, 2-n-butyl-4-spirocyclopentane-1-[[2′-(1H-tetrazol-5-yl)-1,1′-biphenyl-4-yl]methyl]-2-imidazolin-5-one]", "values": [{"measurement": "Improvement ratio (%)", "setting": "0.04% in physiological saline, vs physiological saline control, Table 1", "value": 62.5, "unit": "%"}, {"measurement": "Mean value of scores", "setting": "0.04% in physiological saline, Table 1 (normal eye 3.3, control 4.9)", "value": 3.9}]}, {"smiles": "CCCCc1nc(Cl)c(CO)n1Cc1ccc(-c2ccccc2-c2nnn[nH]2)cc1.[K]", "note": "[Compound C, 2-butyl-4-chloro-5-hydroxymethyl-1-[[2′-(1H-tetrazol-5-yl)-1,1′-biphenyl-4-yl]methyl]imidazole monopotassium salt]", "values": [{"measurement": "Improvement ratio (%)", "setting": "0.5% in physiological saline, vs physiological saline control, Table 1", "value": 87.5, "unit": "%"}, {"measurement": "Mean value of scores", "setting": "0.5% in physiological saline, Table 1 (normal eye 3.3, control 4.9)", "value": 3.5}]}, {"smiles": "CCOc1nc2cccc(C(=O)O)c2n1Cc1ccc(-c2ccccc2-c2nnn[nH]2)cc1", "note": "[Compound D, 2-ethoxy-1-[[2′-(1H-tetrazol-5-yl)-1,1′-biphenyl-4-yl]methyl]-1H-benzimidazol-7-carboxylic acid]", "values": [{"measurement": "Improvement ratio (%)", "setting": "[1]", "value": 47.6, "unit": "%"}, {"measurement": "Mean value of scores", "setting": "[2]", "value": 3.6}]}, {"smiles": "CCCc1nc2c(C)cc(-c3nc4ccccc4n3C)cc2n1Cc1ccc(-c2ccccc2C(=O)O)cc1", "note": "[Compound A, 4′-[[4-methyl-6-(1-methylbenzimidazol-2-yl)-2-n-propylbenzimidazol-1-yl]methyl]-1,1′-biphenyl-2-carboxylic acid]", "values": [{"measurement": "Improvement ratio (%)", "setting": "0.005% in physiological saline, vs physiological saline control, Table 1", "value": 62.5, "unit": "%"}, {"measurement": "Mean value of scores", "setting": "0.005% in physiological saline, Table 1 (normal eye 3.3, control 4.9)", "value": 3.9}]}, {"smiles": "CCCCC(=O)N(Cc1ccc(-c2ccccc2-c2nnn[nH]2)cc1)[C@H](C(=O)O)C(C)C", "note": "[Compound E, N-[[2′-(1H-tetrazol-5-yl)-1,1′-biphenyl-4-yl]methyl]-N-valeryl-L-valine]", "values": [{"measurement": "Improvement ratio (%)", "setting": "[1]", "value": 33.3, "unit": "%"}, {"measurement": "Mean value of scores", "setting": "[2]", "value": 3.9}]}, {"smiles": "CCCc1nc(C(C)(C)O)c(C(=O)O)n1Cc1ccc(-c2ccccc2-c2nnn[nH]2)cc1.O", "note": "[Compound F, 4-(1-hydroxy-1-methylethyl)-2-n-propyl-1-[[2′-(1H-tetrazol-5-yl)-1,1′-biphenyl-4-yl]methyl]imidazol-5-carboxylic acid monohydrate]", "values": [{"measurement": "Improvement ratio (%)", "setting": "0.004% in phosphate-buffered saline, vs phosphate-buffered saline control, Table 3", "value": 65.9, "unit": "%"}, {"measurement": "Mean value of scores", "setting": "0.004% in phosphate-buffered saline, Table 3 (normal eye 2.2, control 6.3)", "value": 3.6}]}]}
